Literature values as cited in article PMC11477967, “Review of the Structural Characteristics and Biological Activities of Tricholoma Secondary Metabolites (2018–2023)” (Molecules, 2024).
Values after ≈ are worked out from the molar mass of the structure shown. Like-named read-outs stand apart in the source and are kept apart here.

Assays:
[1] = test system: Pseudomonas aeruginosa; design: method as in PMID 26186257
[2] = test system: S. aureus; design: method as in PMID 26186257
[3] = test system: MCF-7
[4] = test system: B. subtilis; design: method as in PMID 26186257
[5] = test system: E. coli; design: method as in PMID 26186257
[6] = test system: bacteria; design: method as in PMID 32534274, PMID 26186257, PMID 34604687, PMID 28794307; conditions: Table 1 summary
[7] = test system: human tumor cell lines; design: method as in PMID 29758519, PMID 32534274, PMID 26186257; conditions: Table 1 summary
[8] = test system: A-549
[9] = test system: S. epidermidis; design: method as in PMID 26186257
[10] = test system: L929
[11] = test system: H1299
[12] = test system: HT29
[13] = design: method as in PMID 36480815; conditions: Table 1 summary
[14] = design: method as in PMID 36480815; conditions: among 50-54
[15] = test system: MCF7
[16] = test system: HeLa; design: method as in PMID 36480815; conditions: HeLa cell line
[17] = test system: human cancer cell lines; conditions: for Bioactivities: Cytotoxic against human cancer cell lines: Table 1 summary; for cytotoxicity rank: among 55, 56, 58, 60, 61, cell line not specified
[18] = test system: PDF; design: method as in PMID 36480815; conditions: PDF cells
[19] = test system: Hep G2; design: method as in doi:10.1177/1934578X1801300901; conditions: said to surpass shikonin
[20] = test system: WISH; design: method as in doi:10.1177/1934578X1801300901
[21] = test system: A549; design: method as in doi:10.1177/1934578X1801300901; conditions: said to surpass shikonin
[22] = test system: Hep G2; design: method as in PMID 37175274
[23] = test system: MCF-7; design: method as in PMID 37175274
[24] = test system: Caki-1; design: method as in PMID 37175274
[25] = test system: MCF-7; design: method as in doi:10.1177/1934578X1801300901
[26] = test system: A-549; design: method as in PMID 37175274
[27] = test system: Caki-1; design: method as in doi:10.1177/1934578X1801300901
[28] = test system: caspase-3; design: method as in PMID 33449279; conditions: compared to the control group
[29] = test system: caspase-9; design: method as in PMID 33449279; conditions: compared to the control group
[30] = test system: HeLa; design: method as in PMID 33449279
[31] = test system: MCF-7; design: method as in PMID 33449279; conditions: MCF-7 cells
[32] = design: method as in doi:10.1016/0040-4039(96)01329-9; conditions: solutions containing trace inorganic acids
[33] = test system: S. epidermidis; design: method as in PMID 28794307
[34] = test system: S. aureus; design: method as in PMID 28794307
[35] = test system: Bacillus subtilis; design: method as in PMID 28794307
[36] = test system: E. coli; design: method as in PMID 28794307

In the case of `CC(C)C(C)C=CC(C)C1CCC2C(=CC(=O)OC3(C)CCC=CC3=O)C(=O)CCC21C` (centres unmarked) [Compound 40, chaxine C], the “antibacterial activity” value [1] is listed as “antibacterial activity”, the “antibacterial activity” value [2] is listed as “more significant inhibitory effect” and the “selective cytotoxicity” value [3] is listed as “selective toxicity”. The “antibacterial activity” value [4] was “more significant inhibitory effect”, the “antibacterial activity” value [5] was “antibacterial activity” and the “Bioactivities: Antibacterial activity” value [6] was “Antibacterial activity”. For the same compound, the “Bioactivities: Anti-cancer activity” value [7] was “Anti-cancer activity”, the IC50 [8] was under 10 µM and the “selective cytotoxicity” value [8] was “selective toxicity”. For the same compound, the “antibacterial activity” value [9] was “antibacterial activity”.

In the case of `CC(C)C(C)/C=C/[C@@H](C)C1CCC2C3=C[C@H](O)[C@@]45C[C@@H](O)CC[C@]4(C)[C@]3(CC[C@@]21C)O5` (some centres unmarked) [Compound 50, anatoluin A], the “toxicity to normal or healthy cell lines” value [10] is given as “almost no toxicity”, the “cytotoxic activity” value [11] is given as “selectively inhibited” and the IC50 ([11]; H1299 cell line) is given as 34.3 ± 1.1 µg/mL (≈ 80 µM). The “cytotoxic activity” value [12] was “selectively inhibited”, the “Bioactivities: Antioxidant activity” value [13] was “Antioxidant activity” and the “lipid peroxidation inhibitory activity (rank, words)” value [14] was “most active”. The “cytotoxic activity” value [15] was “selectively inhibited” and the IC50 [16] was 14.3 ± 1.7 µg/mL (≈ 33.4 µM).

For `CC(C)C(C)/C=C/[C@@H](C)C1CCC2C3=C[C@@H](O)[C@@]45C[C@@H](O)CC[C@]4(C)[C@]3(CC[C@@]21C)O5` (some centres unmarked) [Compound 51, anatoluin B], the “toxicity to normal or healthy cell lines” value [10] is given as “almost no toxicity”, the “cytotoxic activity” value [11] is given as “selectively inhibited” and the “cytotoxic activity” value [17] is given as “good cytotoxic activity”. For the same compound, the “Bioactivities: Antioxidant activity” value [13] was “Antioxidant activity” and the “cytotoxic activity” value [15] was “selectively inhibited”.

In the case of `CC(C)C(C)/C=C/C(C)C1CCC2C3=CC4OC45C[C@@H](O)CC[C@]5(C)C3CC[C@@]21C` (stereo partly drawn) [Compound 52, 5α,6α-epoxy-ergosta-7,22-dien,3β-ol], the “toxicity to normal or healthy cell lines” value [10] is listed as “almost no toxicity”, the “cytotoxic activity” value [11] is listed as “selectively inhibited” and the “cytotoxic activity” value [12] is listed as “selectively inhibited”. The “Bioactivities: Antioxidant activity” value [13] was “Antioxidant activity” and the “cytotoxic activity” value [15] was “selectively inhibited”.

In the case of `CC(C)C(C)C=CC(C)C1CCC2C1(C)CCC1C23C=CC2(CC(O)CCC12C)OO3` (centres unmarked) [Compound 53, ergosterol-endoperoxide], the IC50 ([10]; L929 cells) is given as 65.6 ± 2.2 µg/mL (≈ 153 µM), the “Bioactivities: Cytotoxic against human cancer cell lines” value (“Bioactivities: Cytotoxic” for short) [17] is given as “Cytotoxic against human cancer cell lines” and the “cytotoxic activity” value ([12]; HT29) is given as “selectively inhibited”. For the same compound, the “Bioactivities: Antioxidant activity” value [13] was “Antioxidant activity” and the IC50 [18] was 52.8 ± 0.5 µg/mL (≈ 123 µM).

In the case of `C=C1CCC(CCC2CCC3(OC2)OC2(O)CCC3(C)OC2(C)C)C(C)(C)C1CC=C1C(=O)OCC1O` (centres unmarked) [Compound 56, saponaceolide A], the “antiproliferative effects” value [19] is given as “strong antiproliferative effects”, the “antiproliferative effects” value [20] is given as “strong antiproliferative effects” and the “antiproliferative effects” value [21] is given as “strong antiproliferative effects”. The “Bioactivities: Cytotoxic” value [17] was “Cytotoxic against human cancer cell lines”, the “cytotoxicity rank” value [17] was “most significant cytotoxicity” and the “inhibitory effects” value [22] was “notable inhibitory effects”. The “inhibitory effects” value [23] was “notable inhibitory effects”, the “inhibitory effects” value [24] was “notable inhibitory effects” and the “antiproliferative effects” value [25] was “strong antiproliferative effects”. For the same compound, the “inhibitory effects” value [26] was “notable inhibitory effects” and the “antiproliferative effects” value [27] was “strong antiproliferative effects”.

In the case of `C=C1CCC(CC=C2CCC3(OC2)OC2(O)CCC3(C)OC2(C)C)C(C)(C)C1CC=C1C(=O)OCC1O` (centres unmarked) [Compound 60, saponaceolide F], the “antiproliferative effects” value [19] is listed as “strong antiproliferative effects”, the “antiproliferative effects” value [20] is listed as “strong antiproliferative effects” and the “antiproliferative effects” value [21] is listed as “strong antiproliferative effects”. The “Bioactivities: Cytotoxic” value [17] was “Cytotoxic against human cancer cell lines”, the “cytotoxicity rank” value [17] was “most significant cytotoxicity” and the “inhibitory effects” value [22] was “notable inhibitory effects”. The “inhibitory effects” value [23] was “notable inhibitory effects”, the “inhibitory effects” value [24] was “notable inhibitory effects” and the “antiproliferative effects” value [25] was “strong antiproliferative effects”. For the same compound, the “inhibitory effects” value [26] was “notable inhibitory effects” and the “antiproliferative effects” value [27] was “strong antiproliferative effects”.

For `C=C1CCC(CCC2CC=C(C3(C)CCC(=O)C(C)(C)O3)OC2)C(C)(C)C1CC=C1C(=O)OCC1O` (centres unmarked) [Compound 63, tricholopardin C], the “activation of caspase-3” value [28] is listed as “activation”, the “Bioactivities: Cytotoxic” value [17] is listed as “Cytotoxic against human cancer cell lines” and the “activation of caspase-9” value [29] is listed as “activation”. For the same compound, the “cytotoxicity” value [30] was “cytotoxicity” and the IC50 [31] was 4.7 µM.

For `C=C1CCC(CCC2CC=C(C3(C)CCC(=O)C(C)(C)O3)OC2)C(C)(C)C1CC=C1CCOC1=O` (centres unmarked) [Compound 64, tricholopardin D], the “Bioactivities: Cytotoxic” value [17] is given as “Cytotoxic against human cancer cell lines” and the “cytotoxicity” value [30] is given as “cytotoxicity”.

In the case of `C=C(C#CC1=CC(OC(C)=O)CC(OC(=O)C(C)=CCCC(=C)C#CC2=CC(OC(C)=O)C3OC3C2=O)C1=O)CCC=C(C)C(=O)O` (centres unmarked) [Compound 79, tricholomenyn C], the “stability” value [32] is given as “easily decomposes”.

For `C=CC(O)CCCCC` (centres unmarked) [Compound 93, 1-octen-3-ol], the “antibacterial activity” value [33] is listed as “strong antibacterial activity”, the “antibacterial activity” value [34] is listed as “strong antibacterial activity” and the “antibacterial activity” value [35] is listed as “strong antibacterial activity”. The “antibacterial activity” value [36] was “strong antibacterial activity” and the “Bioactivities: Antibacterial activity” value [6] was “Antibacterial activity”.
